Measured values reported in patent US8372866B2, “2-aryl and 2-heteroaryl 4H-1-benzopyran-4-one-6-amidino derivatives, new pharmacological agents for the treatment of arthritis, cancer and related pain” (Rottapharm S.p.A., priority 2008, dated 2013).
Where a name gives a salt, the structure may show the parent alone.

Columns and labels:
[1] = biological target: T1, recombinant human aggrecanase 2 (ADAMTS-5) (Homo sapiens, UniProt Q9UNA0); assay: InviLISA Aggrecanase activity assay, aggrecanase 2; assay type: biochemical; conditions: inhibitors tested at 10 μM final concentration
T1 construct: ADAMTS-5 aminoacids S262-G625 with C-terminal tag; purchased Invitek GmbH, Berlin
T1 sequence (Q9UNA0 262-625): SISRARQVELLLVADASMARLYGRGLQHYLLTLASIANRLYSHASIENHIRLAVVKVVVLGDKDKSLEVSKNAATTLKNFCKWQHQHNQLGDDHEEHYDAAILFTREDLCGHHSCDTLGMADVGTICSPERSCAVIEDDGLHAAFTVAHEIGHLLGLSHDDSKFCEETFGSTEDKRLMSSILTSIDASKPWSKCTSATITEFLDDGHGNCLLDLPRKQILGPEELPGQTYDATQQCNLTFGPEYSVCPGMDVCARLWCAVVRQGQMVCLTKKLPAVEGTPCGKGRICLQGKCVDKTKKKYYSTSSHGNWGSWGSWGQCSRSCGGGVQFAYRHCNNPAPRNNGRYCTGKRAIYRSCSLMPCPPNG
Procedure: (§1) The InviLISA Aggrecanase activity assay (Invitek GmbH, Berlin) was used to screen and characterise aggrecanase inhibitors. The assay was carried out in two steps, according to Will et al. (Will H, Dettloff M, Bendzko P, Svenshnikov P, A Quantitative Assay for aggrecanase Activity; 2005, Journal of Biomolecular Techniques, 16 (4), 459-472). A recombinant fragment of human aggrecan interglobular domain (aggrecan-IGD; T331-G458) is first digested with aggrecanase. Proteolytic cleavage of the substrate releases an aggrecan peptide with the N-terminal sequence ARGSVIL (ARGSVIL-peptide), that was then quantified with two monoclonal anti-peptide antibodies (ELISA module). For precise calculation of product, ARGSVIL-peptide standard concentrations were run in parallel.
(§2) 1) Proteolysis of aggrecan-IGD by aggrecanase. Aggrecan-IGD was incubated with standard recombinant human aggrecanase 1 (ADAMTS-4 aminoacids F213-A579 with C-terminal tag) or standard recombinant human aggrecanase 2 (ADAMTS-5 aminoacids S262-G625 with C-terminal tag) in the absence (total enzymatic activity) or presence (modulated enzymatic activity) of inhibitors to be tested. Enzymes were pre-incubated with the inhibitors or the appropriate concentration of diluent as control (DMSO 0.25% final concentration in proteolysis), at 4° C. for 30 min prior to assaying their activity. Five microliters of mix enzyme-inhibitor were added to the substrate (0.1 μM final concentration) in a total volume of 100 μL and incubated for 15 minutes at 37° C. The reaction was terminated with EDTA-containing buffer. The inhibitors were tested at 10 μM final concentration and compounds achieving ≧50% inhibitory effect were evaluated for IC50 calculation, in a range generally extended from 0.1 to 10 μM final concentration.
(§3) 2) Aggrecan peptide ELISA. ARGSVIL-peptide standard, proteolytic digestion of Aggrecan-IGD with standard aggrecanases and test samples were incubated in microtiter wells pre-coated with anti-ARGSVIL-neoepitope antibody. ARGSVIL-peptide is bound to the coated antibody, while other components are removed by washing and aspiration. The bound ARGSVIL-peptide was detected with a second peroxidase-labelled antibody. Any excess of the conjugate was removed by washing and aspiration. The amount of peroxidase bound to different wells was determined in reactions with peroxidase substrate TMB. The reactions are stopped by addition of sulphuric acid solution and absorbance is read at 450 nm in a microtiter plate spectrophotometer.

[2] = test system: Zymosan-induced mechanical hyperalgesia; assay: Zymosan-induced mechanical hyperalgesia (Randall-Selitto), model of inflammatory pain; assay type: in vivo, rat
Procedure: In this model, typically a male Sprague-Dawley or Wistar rat (200-250 g) receives an interplantar injection of 3 mg/100 μl zymosan into one hind paw. A marked inflammation occurs in this hind paw. Drugs are administered orally for evaluation of efficacy, 30 min. before the inflammatory insult. […] The quantisation of the analgesic effect is achieved by an analgesimeter, which consists in applying to the inflamed paw an increasing weight (from 130-140 g up to 500 g). […] For each test compound, at least three doses were used, with 8 animals per group. Compounds of the invention were tested at 10, 20 and 40 mg/Kg.

[3] = test system: CFA-induced prolonged inflammation; assay: CFA model of chronic inflammatory pain (Randall-Selitto); assay type: in vivo, rat; conditions: for MPE 0.5 hrs / MPE 1.5 hrs / MPE 3 hrs: NE = not effective
[4] = biological target: T2, recombinant human aggrecanase 1 (ADAMTS-4) (Homo sapiens, UniProt O75173); assay: InviLISA Aggrecanase activity assay, aggrecanase 1; assay type: biochemical; conditions: inhibitors tested at 10 μM final concentration
T2 construct: ADAMTS-4 aminoacids F213-A579 with C-terminal tag; purchased Invitek GmbH, Berlin
T2 sequence (O75173 213-579): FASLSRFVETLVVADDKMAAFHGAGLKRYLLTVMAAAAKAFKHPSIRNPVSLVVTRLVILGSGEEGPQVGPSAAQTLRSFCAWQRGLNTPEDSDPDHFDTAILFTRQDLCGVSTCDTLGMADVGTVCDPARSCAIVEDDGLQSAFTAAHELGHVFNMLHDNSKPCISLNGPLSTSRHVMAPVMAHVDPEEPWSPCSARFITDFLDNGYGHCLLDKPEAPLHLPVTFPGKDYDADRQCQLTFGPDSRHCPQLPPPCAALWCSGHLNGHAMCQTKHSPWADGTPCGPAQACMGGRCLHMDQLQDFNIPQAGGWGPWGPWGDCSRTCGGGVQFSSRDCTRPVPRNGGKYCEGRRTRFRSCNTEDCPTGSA
Procedure: as §1, §2, §3

[5] = test system: mechanical hyperalgesia associated with STZ-induced diabetes; assay: STZ-induced diabetes mechanical hyperalgesia, model of neuropathic pain (Randall-Selitto); assay type: in vivo, rat
Procedure: Painful diabetic neuropathy is one of the most common complications of insulin-dependent diabetes in man; in particular, diabetes can be associated with neuropathic pain which fails to be treated by classical analgesics. Streptozotocin (STZ)-induced diabetes in the rat has been increasingly used as a model of painful diabetic neuropathy to assess the efficacies of potential analgesic agents (C. Courteix, Pain 1993, 53, 81-8). A representative compound of the invention was tested for efficacy in reducing mechanical hyperalgesia associated with STZ-induced diabetes in the rat, according to the experimental model as described by the literature. Diabetes was produced with the injection of a single dose (75 mg/Kg i.p.) of STZ. In the following four weeks after the induction of diabetes the clinical symptoms (weight, body and skin temperature, motility and hyperglycemia) progressively developed by the animals, are strictly monitored.
After four weeks, the scores obtained in diabetic rats to various pain stimuli (in particular mechanical stimuli) were greater than those in normal rats, indicating hyperalgesia. The hyperalgesia induced by diabetes was evaluated using the Randall-Selitto method as above described, and quantitated using the analgesimeter. Also in this case, the difference in the mechanical pain threshold between the basal value (generally 230-250 g) and the one tolerated by the animals treated with the drug, is defined as mechanical hyperalgesia. The compound of the invention was administered i.p. (solution, Tween 80, 10% in saline) at different doses, and mechanical hyperalgesia was measured at the reported time, as maximum percent effect (MPE) which represents the difference (%) in pain threshold between the animals treated with the drug and the controls that received only the vehicle, compared with the weight borne by naïf non-diabetic controls. A 100% protection means that the diabetic animals treated with the compound can tolerate the same stimulus (weight) as the naïf non-diabetic animals. MPE higher than 100% means that the diabetic animal treated with the compound can tolerate stimuli (weight) higher than the control non-diabetic animals (hypoalgesia).
In Table 4, the effect of a representative compound of formula (I), in the above described model of neuropathic pain, is compared with some known pharmacological standards used for the clinical treatment of this pathology. In particular, from the MPE data at 0.5 hrs, the doses yielding a protection of 50% (ED50) and 100% (ED100) have been calculated.

[6] = 10 mg/Kg IP, NE = not effective
[7] = 30 mg/Kg IP, NE = not effective

## CC(=N)Nc1ccc2oc(-c3ccc(O)nc3)c(O)c(=O)c2c1 (as salt: hydrochloride) [Example 21, 2-(6-hydroxypyridin-3-yl)-3-hydroxy-6-[(1-iminoethyl)amino]-4H-1-benzopyran-4-one hydrochloride]
other
  melting point: 284.5 to 286 °C

## CC(=N)Nc1ccc2oc(-c3ccc4c(c3)OCO4)c(O)c(=O)c2c1 (as salt: hydrochloride) [Example 16, 2-(benzo[1,3]dioxol-5-yl)-3-hydroxy-6-[(1-iminoethyl)amino]-4H-1-benzopyran-4-one hydrochloride]
other
  melting point: 262.3 to 262.9 °C

## N=C(CC1CC1)Nc1ccc2oc(-c3ccc(-n4ccnc4)cc3)c(O)c(=O)c2c1 (as salt: hydrochloride) (hydrate or solvate) [Example 6, 2-[(4-imidazol-1-yl)-phenyl]-3-hydroxy-6-[(1-iminoethyl-2-cyclopropyl)amino]-4H-1-benzopyran-4-one dihydrochloride monohydrate]
other
  melting point: 249.1 to 251.1 °C

## CC(=N)Nc1ccc2oc(-c3ccccc3)cc(=O)c2c1 (as salt: hydrochloride) [Example 1, 2-phenyl-6-[(1-iminoethyl)amino]-4H-1-benzopyran-4-one hydrochloride]
other
  melting point: 278.2 to 278.8 °C

## CC(=N)Nc1ccc2oc(-c3ccccc3)cc(=O)c2c1 [Example 1, 2-phenyl-6-[(1-iminoethyl)amino]-4H-1-benzopyran-4-one hydrochloride]
[1]
  inhibition at 10 µM: 30%
[2]; Rattus norvegicus, 4 h, read-out: ED50 4 hrs
  ED50: 7.9 mg/kg
[2]; rat, OS, 4 hrs after zymosan, NC = not calculable
  ED100 4 hrs: 19 mg/kg
[3]; 3 mg/Kg IP
  MPE 0.5 hrs: 30%
  MPE 1.5 hrs: 50%
  MPE 3 hrs: 40%
[3]; 10 mg/Kg IP
  MPE 0.5 hrs: 62%
  MPE 1.5 hrs: 39%
[3]; 30 mg/Kg IP
  MPE 0.5 hrs: 261%
  MPE 1.5 hrs: 190%
  MPE 3 hrs: 37%
[3]; IP, calculated from the MPE data at 0.5 hrs
  ED100 0.5 hrs: 8.06 mg/kg
[3]; Rattus norvegicus, ip, 0.5 h, read-out: ED50 0.5 hrs
  ED50: 4.86 mg/kg
[4]
  inhibition at 10 µM: 10%
[5]; 3 mg/Kg IP, NE = not effective
  MPE 0.5 hrs: 74%
  MPE 1.5 hrs: 25%
[5]; [6]
  MPE 0.5 hrs: 109%
  MPE 1.5 hrs: 54%
[5]; [7]
  MPE 0.5 hrs: 113%
  MPE 1.5 hrs: 39%
  MPE 3 hrs: 39%
  MPE 6 hrs: 31%
[5]; at the doses of 10 and 30 mg/kg
  protection: higher than 100%
[5]; rat, in vivo
  efficacy in STZ neuropathic pain paradigm: high efficacy

## COc1ccc(-c2oc3ccc(NC(C)=N)cc3c(=O)c2O)cc1 (as salt: hydrochloride) (hydrate or solvate) [Example 12, 2-(4-methoxyphenyl)-3-hydroxy-6-[(1-iminoethyl)amino]-4H-1-benzopyran-4-one hydrochloride monohydrate]
other
  melting point: 260.1 to 261.1 °C

## CC(=N)Nc1ccc2oc(-c3cccc(-n4ccnc4)c3)c(O)c(=O)c2c1 (as salt: hydrochloride) [Example 8, 2-[(3-(imidazol-1-yl)-phenyl]-3-hydroxy-6-[(1-iminoethyl)amino]-4H-1-benzopyran-4-one dihydrochloride]
other
  melting point: 281 to 281.5 °C

## CC(=N)Nc1ccc2oc(-c3ccc4c(c3)CCO4)c(O)c(=O)c2c1 (as salt: hydrochloride) [Example 15, 2-(dihydrobenzofuran-5-yl)-3-hydroxy-6-[(1-iminoethyl)amino]-4H-1-benzopyran-4-one hydrochloride]
other
  melting point: 291 to 292 °C

## N=C(CC1CC1)Nc1ccc2oc(-c3ccc(O)cc3)c(O)c(=O)c2c1 (as salt: hydrochloride) [Example 11, 2-(4-hydroxyphenyl-3-hydroxy-6-[(1-iminoethyl-2-cyclopropyl)amino]-4H-1-benzopyran-4-one hydrochloride]
other
  melting point: 281 to 281.5 °C

## CC(=N)Nc1ccc2oc(-c3ccc(-n4ccnc4)cc3)c(O)c(=O)c2c1 (as salt: hydrochloride) [Example 5, 2-[(4-imidazol-1-yl)-phenyl]-3-hydroxy-6-[(1-iminoethyl)amino]-4H-1-benzopyran-4-one hydrochloride]
other
  melting point: 311.7 to 312.1 °C

## CC(=N)Nc1ccc2oc(-c3ccc4c(c3)OCO4)cc(=O)c2c1 (as salt: hydrochloride) [Example 4, 2-(benzo[1,3]dioxol-5-yl)-6-[(1-iminoethyl)amino]-4H-1-benzopyran-4-one hydrochloride]
other
  melting point: 272.7 to 273.3 °C

## COCCC(=N)Nc1ccc2oc(-c3ccc4c(c3)OCO4)c(O)c(=O)c2c1 (as salt: hydrochloride) [Example 19, 2-(benzo[1,3]dioxol-5-yl)-3-hydroxy-6-[(1-iminopropyl-3-methoxy)amino]-4H-1-benzopyran-4-one hydrochloride]
other
  melting point: 188.5 to 190 °C
